Experiments:
[1] = biological target: T1, mGluR1a (Rattus norvegicus, UniProt P23385); test: whole-cell patch clamp, calcium current inhibition in SCG neurons expressing the receptor; assay type: cell-based
T1 construct: gene Grm1; splice variant mGluR1a (untagged and N-terminally myc-tagged, data combined)

[2] = biological target: T2, mGluR5b (Rattus norvegicus, UniProt P31424); test: as above; assay type: cell-based
T2 construct: gene Grm5; splice variant mGluR5b
T2 sequence (P31424 21-1203): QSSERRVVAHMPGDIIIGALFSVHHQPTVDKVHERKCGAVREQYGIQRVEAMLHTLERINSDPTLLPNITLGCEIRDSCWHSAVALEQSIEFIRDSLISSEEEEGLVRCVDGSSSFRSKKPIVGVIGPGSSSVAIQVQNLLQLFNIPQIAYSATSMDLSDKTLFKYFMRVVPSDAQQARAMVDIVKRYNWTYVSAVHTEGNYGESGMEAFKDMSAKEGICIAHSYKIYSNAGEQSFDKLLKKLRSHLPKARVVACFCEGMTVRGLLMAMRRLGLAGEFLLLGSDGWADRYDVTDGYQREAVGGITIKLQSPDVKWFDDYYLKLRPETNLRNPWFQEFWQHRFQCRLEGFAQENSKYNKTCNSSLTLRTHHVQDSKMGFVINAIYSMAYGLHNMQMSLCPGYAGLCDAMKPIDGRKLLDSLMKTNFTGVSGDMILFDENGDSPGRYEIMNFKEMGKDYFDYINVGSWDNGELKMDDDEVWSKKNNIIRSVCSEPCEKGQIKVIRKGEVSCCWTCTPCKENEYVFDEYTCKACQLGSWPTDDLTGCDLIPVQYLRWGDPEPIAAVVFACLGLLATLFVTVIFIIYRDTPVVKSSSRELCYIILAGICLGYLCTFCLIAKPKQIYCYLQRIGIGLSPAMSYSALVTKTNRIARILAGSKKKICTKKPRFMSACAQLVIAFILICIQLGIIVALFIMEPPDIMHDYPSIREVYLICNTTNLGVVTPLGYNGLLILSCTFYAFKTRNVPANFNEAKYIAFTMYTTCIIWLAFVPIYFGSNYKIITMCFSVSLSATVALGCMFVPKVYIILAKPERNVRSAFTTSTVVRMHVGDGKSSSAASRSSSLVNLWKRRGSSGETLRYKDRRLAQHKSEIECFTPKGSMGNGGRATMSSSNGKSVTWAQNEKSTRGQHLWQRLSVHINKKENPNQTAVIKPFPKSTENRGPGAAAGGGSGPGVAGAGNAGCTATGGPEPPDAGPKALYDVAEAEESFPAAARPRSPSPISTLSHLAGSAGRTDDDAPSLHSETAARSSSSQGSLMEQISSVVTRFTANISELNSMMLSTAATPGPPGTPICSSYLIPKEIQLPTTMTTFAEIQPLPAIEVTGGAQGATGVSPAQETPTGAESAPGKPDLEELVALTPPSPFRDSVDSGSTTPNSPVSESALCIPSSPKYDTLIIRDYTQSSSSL

T1 sequence (P23385 19-1199): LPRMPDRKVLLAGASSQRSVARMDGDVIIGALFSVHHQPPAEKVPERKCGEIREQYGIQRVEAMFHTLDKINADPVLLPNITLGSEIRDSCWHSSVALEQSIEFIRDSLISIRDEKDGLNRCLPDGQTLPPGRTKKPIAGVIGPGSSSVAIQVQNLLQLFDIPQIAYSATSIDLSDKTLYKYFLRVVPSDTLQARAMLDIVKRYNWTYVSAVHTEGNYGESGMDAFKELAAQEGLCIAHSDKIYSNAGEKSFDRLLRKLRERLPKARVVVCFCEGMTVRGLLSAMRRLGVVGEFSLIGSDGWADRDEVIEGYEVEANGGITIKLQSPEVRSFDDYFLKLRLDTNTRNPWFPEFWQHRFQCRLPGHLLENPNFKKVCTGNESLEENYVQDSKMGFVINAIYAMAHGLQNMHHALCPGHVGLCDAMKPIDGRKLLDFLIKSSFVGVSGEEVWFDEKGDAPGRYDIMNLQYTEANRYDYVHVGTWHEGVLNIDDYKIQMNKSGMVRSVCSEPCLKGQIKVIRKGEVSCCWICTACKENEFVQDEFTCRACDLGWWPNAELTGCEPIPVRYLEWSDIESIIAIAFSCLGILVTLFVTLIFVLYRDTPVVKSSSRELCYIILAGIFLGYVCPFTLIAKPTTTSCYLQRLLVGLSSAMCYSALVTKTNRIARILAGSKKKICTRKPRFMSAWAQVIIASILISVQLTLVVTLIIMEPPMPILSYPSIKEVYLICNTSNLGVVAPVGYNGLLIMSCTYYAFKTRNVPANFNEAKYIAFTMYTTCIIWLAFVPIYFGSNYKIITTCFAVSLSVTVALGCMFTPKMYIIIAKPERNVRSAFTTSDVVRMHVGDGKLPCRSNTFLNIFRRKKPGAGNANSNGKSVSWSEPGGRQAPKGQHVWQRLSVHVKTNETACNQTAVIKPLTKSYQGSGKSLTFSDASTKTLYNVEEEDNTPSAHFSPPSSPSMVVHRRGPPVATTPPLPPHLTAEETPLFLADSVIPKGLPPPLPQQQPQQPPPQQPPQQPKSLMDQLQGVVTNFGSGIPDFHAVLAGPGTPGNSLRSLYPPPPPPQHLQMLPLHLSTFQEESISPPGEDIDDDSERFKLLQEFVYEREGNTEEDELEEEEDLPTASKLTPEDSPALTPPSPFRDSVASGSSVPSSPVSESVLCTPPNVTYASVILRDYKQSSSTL

Work on `NC(C(=O)O)c1cc(O)ccc1Cl` (racemic) [CHPG, 2-Chloro-5-hydroxyphenylglycine] yielded an EC50 [1] of 80 µM and an EC50 [2] of 57 µM.
